Assay results: US20180325106A1, “METHOD OF RETARDING AN ETHYLENE RESPONSE” (CURTIN UNIVERSITY OF TECHNOLOGY, priority 2015, published 2018)
Where two headings read alike, the source gives them in different places.

How the values were obtained:
Solubility in water = format: physicochemical
[1] = tested on: 'Tegan Blue' Japanese plum fruit; assay: Climacteric respiration (CO2 production) in 'Tegan Blue' plum fruit; format: in vivo
Procedure: (§1) Mature ‘Tegan Blue’ and ‘Fortune’ Japanese plum and ‘Arctic Pride’ nectarine fruits of uniform size and maturity, free from visual blemishes and diseases were harvested in early morning from a commercial orchard in Western Australia. Following the harvest, the fruit were brought to the Horticulture Research Laboratory, Curtin University, using a temperature controlled vehicle at 20-25° C. The fruit were treated by fumigation with 0 to 100 nLL^−1 of BC and 1000 nLL^−1 of 1-MCP (Tegan Blue plum) for 18 hr at ambient conditions (20±1° C. and 65±5% RH) by using hermetically sealed plastic containers of 60 L volume. […]
(§2) Respiration rate was determined as carbon dioxide (CO2) production from the fruit during ripening period a using CO2 analyser. […] The respiration rate was calculated on the basis of the peak areas of 2.0 mL gas sample and CO2 standard (8.52±0.17%) and expressed as mmoL CO2 […] h^−1.
(§3) The experimental data were analysed following one-way analysis of variance (ANOVA) by using Genstat 13 (release 13.1; Lawes Agricultural Trust, Rothamsted Experimental Station, Harpenden, UK). The effects of various treatments and their interactions were assessed and least significant differences (Fisher's LSD) were calculated by F test at 5% level of significance.

[2] = tested on: 'Arctic Pride' nectarine fruit; assay: Climacteric respiration (CO2 production) in 'Arctic Pride' nectarine fruit; format: in vivo
Procedure: as §1, §2, §3

[3] = tested on: 'Tegan Blue' Japanese plum fruit; assay: Climacteric ethylene production in 'Tegan Blue' plum fruit after fumigation; format: in vivo; conditions: for level of climacteric ethylene, suppressed, fold in comparison to the solely ethylene treated fruit: then ethylene 10 μL L^-1 24 hr, 'Tegan Blue' plum, P≤0.05
Procedure: Mature ‘Tegan Blue’ and ‘Fortune’ Japanese plum and ‘Arctic Pride’ nectarine fruits of uniform size and maturity, free from visual blemishes and diseases were harvested in early morning from a commercial orchard in Western Australia. Following the harvest, the fruit were brought to the Horticulture Research Laboratory, Curtin University, using a temperature controlled vehicle at 20-25° C. The fruit were treated by fumigation with 0 to 100 nLL^−1 of BC and 1000 nLL^−1 of 1-MCP (Tegan Blue plum) for 18 hr at ambient conditions (20±1° C. and 65±5% RH) by using hermetically sealed plastic containers of 60 L volume. Whatman filter paper (number 2) soaked with specific concentrations of BC and 1-MCP were kept along with the fruit and 30 g of soda lime inside each container. A small battery operated fan was used to ensure equal distribution of the vapours from the chemicals. Half of the treated fruit was exposed to ethylene (10 μL L^−1) for 24 hr following BC and 1-MCP treatment.
The endogenous level of ethylene was determined by using the Sensor Sense (Sensor sense B. V, Nijmegen, The Netherlands). The Sensor Sense includes an ETD 300 ethylene detector, a set of valve controllers with an option of six valves connected to six separate cuvettes [1.0 L air-tight jar, fitted with a rubber septum (SubaSeal®, Sigma-Aldrich Co., St. Louis, USA)]. The continuous flow method was used with coarse mode (conversion factor 99818, capacity to measure ethylene concentration at 0-500 ppm, sensitivity at <1%) of analysis. Each sample was run for 20 minutes with a flow rate of 4.0 L hour^−1 and the average reading of last 15 minutes was considered to calculate the concentration of ethylene and expressed as μmol […] h^−1.
as §3

WX17 wax flower = assay: Flower/bud abscission in WX17 wax flower; format: in vivo, Chamelaucium Desf.; conditions: 100 nLL^-1 fumigation followed by ethylene 10 μLL^-1
Procedure: (§4) To evaluate the effects of BC and NC on flower abscission, flowering stems of Wax flower (Chamelaucium Desf.) (WX17, WX73 and WX107) were collected from mature bushes grown at Department of Agriculture and Food Western Australia (DAFWA), Perth (31° 58′ 55″ S/115° 51′ 47″ E). Collected stems were immediately placed upright in buckets with water and recut at 20-25 cm in length (from the cut end to the most extreme opened-flowers). The flower stalks were treated similarly as the fruits with BC (0-100 nLL^−1) or NC (0-100 nLL^−1) and ethylene. The experiments were laid out by following CRD design, having five replications for each treatment and five stalks in each replication. During the treatment period, the flower stalks were placed in small plastic bottles with distilled water. A cone made of nylon mesh was placed at the base of the stalks to check the number of abscised flowers. […]
as §3

[4] = Stability at room temperature; format: physicochemical
[5] = tested on: 'Arctic Pride' nectarine fruit; assay: Climacteric ethylene production in 'Arctic Pride' nectarine fruit after fumigation; format: in vivo; conditions: 50 nLL^-1 fumigation, then ethylene 10 μL L^-1
Procedure: as §1
The endogenous level of ethylene was determined by using the Sensor Sense (Sensor sense B. V, Nijmegen, The Netherlands). […] Each sample was run for 20 minutes with a flow rate of 4.0 L hour^−1 and the average reading of last 15 minutes was considered to calculate the concentration of ethylene and expressed as μmol […] h^−1.
as §3

WX73 wax flower = assay: Flower/bud abscission in WX73 wax flower; format: in vivo, Chamelaucium Desf.
Procedure: as §4, §3

[6] = gas at room temperature; background statement; cited from earlier work

| solubility in water (Solubility in water) | SMILES | climacteric respiration, suppressed, fold versus the solely ethylene treated fruit ([1]; 100 nLL^-1 fumigation + ethylene) [fold] | respiration climacteric, suppression, fold in comparison to the solely ethylene treated fruit ([2]; 50 nLL^-1 fumigation + ethylene) [fold] | respiration climacteric, suppression, fold in comparison to the solely ethylene treated fruit ([2]; 50 nLL^-1 fumigation, no ethylene exposure) [fold] | level of climacteric ethylene, suppressed, fold in comparison to the solely ethylene treated fruit ([3]; 100 nLL^-1 fumigation 18 hr) [fold] | difference between effects of BC (100 nL L^-1) and 1-MCP (1000 nL L^-1) on climacteric ethylene and respiration ([3]; 'Tegan Blue' and 'Fortune' plum, 'Arctic Pride' nectarine, ethylene and respiration) | rate of flower/bud abscission (WX17 wax flower) [%] | stability [4] | level of ethylene, suppressed, fold versus the solely ethylene treated fruit [5] [fold] | rate of flower/bud abscission (WX73 wax flower; 50 nL L^-1 fumigation followed by ethylene) [%] | rate of flower/bud abscission (WX73 wax flower; 100 nL L^-1 fumigation followed by ethylene) [%] | climacteric respiration, suppressed, fold versus the solely ethylene treated fruit ([1]; 1000 μLL^-1 (so in the source) fumigation + ethylene) [fold] | level of climacteric ethylene, suppressed, fold in comparison to the solely ethylene treated fruit ([3]; 1000 nLL^-1 fumigation 18 hr) [fold] | stability [6] |
| --- | --- | --- | --- | --- | --- | --- | --- | --- | --- | --- | --- | --- | --- | --- |
| only partially soluble in water | c1ccc2c(c1)C2 [BC, benzocyclopropene] | 0.83 | 0.77 | 0.71 | 0.80 | non-significant differences | 6.05 | stable at room temperature for several months | 0.63 | 22.43 | 28.40 | – | – | – |
| – | CC1=CC1 [1-MCP, 1-Methylcyclopropene, reference compound] | – | – | – | – | – | – | – | – | – | – | 0.77 | 0.70 | highly unstable |
